Activity calls are given as the source filed them. No cut-off for these calls is given here.
How the values were obtained:
[1] = target: Free fatty acid receptor 1 (Homo sapiens, UniProt O14842); experiment: Agonist activity at GPR40 (unknown origin) expressed in CHO cells co-expressing luc2P/SRE assessed as firefly luciferase activity at 10 uM incubated for 24 hrs hrs by Bright-Glo based serum response element (SRE) luciferase reporter assay relative to TAK875; assay type: functional, cell-based
[2] = target: T1, Peroxisome proliferator-activated receptor gamma (Homo sapiens) (UniProt P37231); experiment: Agonist activity at human PPARgamma expressed in CHO cells assessed as increase in receptor transcriptional activity at 1 uM incubated for 24 hrs by dual luciferase reporter gene assay relative to rosiglitazone; assay type: cell-based
T1 sequence (whole entry): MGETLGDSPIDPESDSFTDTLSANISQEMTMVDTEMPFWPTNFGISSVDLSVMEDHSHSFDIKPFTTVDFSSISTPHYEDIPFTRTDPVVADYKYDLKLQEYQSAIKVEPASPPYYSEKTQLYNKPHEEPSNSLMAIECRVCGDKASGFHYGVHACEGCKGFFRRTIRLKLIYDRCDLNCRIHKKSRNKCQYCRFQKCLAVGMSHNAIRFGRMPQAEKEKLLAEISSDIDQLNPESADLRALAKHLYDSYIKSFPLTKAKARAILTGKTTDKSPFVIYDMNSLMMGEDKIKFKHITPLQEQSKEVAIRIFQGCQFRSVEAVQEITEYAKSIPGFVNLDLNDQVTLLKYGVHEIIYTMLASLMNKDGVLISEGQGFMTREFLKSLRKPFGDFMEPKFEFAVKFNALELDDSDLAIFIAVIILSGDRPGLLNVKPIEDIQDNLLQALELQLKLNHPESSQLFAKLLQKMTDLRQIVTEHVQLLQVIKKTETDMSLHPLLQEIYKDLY

STC1 = experiment: Induction of GLP-1 secretion in […] STC1 cells at 100 uM after 1 hrs by ELISA; assay type: functional, cell-based
[3] = target: T2, Peroxisome proliferator-activated receptor gamma (Homo sapiens, UniProt P37231); experiment: Agonist activity at human PPARgamma expressed in CHO cells assessed as increase in receptor transcriptional activity incubated for 24 hrs by dual luciferase reporter gene assay; assay type: cell-based
T2 sequence (P37231 whole entry): T1 sequence (whole entry)

Free fatty acid receptor 1, sequence (O14842 whole entry): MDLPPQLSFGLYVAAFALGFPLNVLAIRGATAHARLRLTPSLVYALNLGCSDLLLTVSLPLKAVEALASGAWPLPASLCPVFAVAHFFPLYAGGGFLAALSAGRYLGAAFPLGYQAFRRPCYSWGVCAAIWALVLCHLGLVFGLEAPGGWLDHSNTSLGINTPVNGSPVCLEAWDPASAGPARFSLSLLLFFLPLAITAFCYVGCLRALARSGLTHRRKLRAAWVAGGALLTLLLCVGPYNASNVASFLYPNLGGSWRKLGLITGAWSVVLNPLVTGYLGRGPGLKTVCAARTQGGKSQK

| SMILES | Emax [1] | Emax [2] | Emax ([1]; filed as agonist) | other results |
| --- | --- | --- | --- | --- |
| O=C(O)CCc1ccc2[nH]c(-c3cc(Cl)ccc3Cl)cc2c1 | 22.8% | 2.69% | – | – |
| CCCCC/C=C\C/C=C\CCCCCCCC(=O)O | – | – | – | Activity (STC1): Active |
| O=C(O)CCc1ccc2[nH]c(-c3ccc(Cl)cc3F)cc2c1 | 2.18% | 3.64% | – | – |
| Cc1cc(Cl)ccc1-c1cc2cc(CCC(=O)O)ccc2[nH]1 | – | – | 109% | EC50 ([3]; read-out: EC50): 27.8 µM; Emax ([2]; filed as agonist): 104% |
| Cc1ccc(C)c(-c2cc3cc(CCC(=O)O)ccc3n2C)c1 | 20.3% | 0.01% | – | – |
| O=C(O)CCc1ccc2[nH]c(-c3ccc(Cl)cc3C(F)(F)F)cc2c1 | 7.67% | 15.9% | – | – |
| O=C(O)CCc1ccc2[nH]c(-c3cccc(Cl)c3F)cc2c1 | 6.81% | 18.2% | – | – |
| O=C(O)CCc1ccc2[nH]c(-c3ccc(Cl)cc3Cl)cc2c1 | – | 5.39% | 48% | – |
| Cc1cc(F)ccc1-c1cc2cc(CCC(=O)O)ccc2n1C | 16.9% | 6.32% | – | – |

Now from value to compound, other results behind:

| Emax [1] | Emax [2] | Emax ([1]; filed as agonist) | SMILES | other results |
| --- | --- | --- | --- | --- |
| 24.7% | 0.19% | – | O=C(O)CCc1ccc2[nH]c(-c3ccncc3Cl)cc2c1 | – |
| – | 12.8% | 81.2% | O=C(O)CCc1ccc2[nH]c(-c3cccc(Cl)c3Cl)cc2c1 | – |
| – | 11.5% | 78.3% | O=C(O)CCc1ccc2[nH]c(-c3c(Cl)cccc3Cl)cc2c1 | – |
| – | 30.6% | 95.3% | Cc1cc(Br)ccc1-c1cc2cc(CCC(=O)O)ccc2[nH]1 | – |
| – | – | 109% | Cc1c(Cl)cccc1-c1cc2cc(CCC(=O)O)ccc2[nH]1 | EC50 ([3]; cho): Not Active |
| 35% | 18.3% | – | Cc1ccc(Cl)cc1-c1cc2cc(CCC(=O)O)ccc2[nH]1 | – |
| – | 0.52% | 69.5% | Cc1cccc(C)c1-c1cc2cc(CCC(=O)O)ccc2[nH]1 | – |
| – | 2.51% | 61.8% | Cc1ccc(-c2cc3cc(CCC(=O)O)ccc3[nH]2)c(C)c1 | – |

From ChEMBL document CHEMBL4808171, “Structure-Activity Relationship Study and Biological Evaluation of 2-(Disubstituted phenyl)-indole-5-propanoic Acid Derivatives as GPR40 Full Agonists” (J Med Chem, 2021)
